According to the NIST ThermoML archive (doi:10.1016/j.jct.2006.07.014):
Numbers after ± are expanded uncertainties.

Tests used:
[1] = Liquid; for mass density: 298.15 K, 101.33 kPa, Vibrating tube method
[2] = refractive index (Na D-line) (dimensionless); details: 298.15 K; 101.33 kPa; Liquid; Standard Abbe refractometry

| Compound | mass density [1] [kg/m3] | vapor or sublimation pressure ([1]; 379.45 K) [kPa] | refractive index [2] | vapor or sublimation pressure ([1]; 353.85 K) [kPa] | vapor or sublimation pressure ([1]; 352.25 K) [kPa] | vapor or sublimation pressure ([1]; 389.15 K) [kPa] | vapor or sublimation pressure ([1]; 371.05 K) [kPa] |
| --- | --- | --- | --- | --- | --- | --- | --- |
| CC(C)CO [2-methyl-1-propanol] | 797.8 ± 4.6 | 94.83 ± 5 | 1.3939 ± 0.0012 | – | – | – | – |
| CC(C)(C)O [2-methylpropan-2-ol] | 781.2 ± 4.4 | – | 1.3852 ± 0.0012 | 94.83 ± 5 | – | – | – |
| CC#N [acetonitrile] | 776.5 ± 4.3 | – | 1.3416 ± 0.0012 | – | 94.83 ± 5 | – | – |
| CCCCO [butan-1-ol] | 805.8 ± 4.6 | – | 1.3974 ± 0.0012 | – | – | 94.83 ± 5 | – |
| CCC(C)O (stereo not given) [butan-2-ol] | 802.4 ± 4.6 | – | 1.3953 ± 0.0012 | – | – | – | 94.83 ± 5 |
